Measurements taken from patent US20220106301A1, “ACETAMIDO-PHENYLBENZAMIDE DERIVATIVES AND METHODS OF USING THE SAME” (Athenex, Inc., priority 2020, published 2022).

Molecular target: CYP3A4 (Homo sapiens, UniProt P08684)
Assay: Determination of CYP3A4 inhibitory activity (human liver microsome, Luciferin-IPA)
Conditions: CYP3A4 IC50 (nM), 37° C. 11 minutes
Description: The standard final Compound concentrations were 37, 111, 333, 1000, and 3000 nM. 12.5 μL of the Compound dilutions were transferred to a white 96-well plate. […] 25 μL of the buffer was added to each well. The plates were incubated at 37° C. for 11 minutes. 50 μL of luciferin detection reagent (Promega V9002) was added and the plates were incubated at room temperature for 5 minutes. The plate was read with a luminometer.
The dose-response curve and IC50 were obtained by fitting data to nonlinear regression model using GraphPad Prism software (v6.0).

Sequence of CYP3A4 (P08684 whole entry): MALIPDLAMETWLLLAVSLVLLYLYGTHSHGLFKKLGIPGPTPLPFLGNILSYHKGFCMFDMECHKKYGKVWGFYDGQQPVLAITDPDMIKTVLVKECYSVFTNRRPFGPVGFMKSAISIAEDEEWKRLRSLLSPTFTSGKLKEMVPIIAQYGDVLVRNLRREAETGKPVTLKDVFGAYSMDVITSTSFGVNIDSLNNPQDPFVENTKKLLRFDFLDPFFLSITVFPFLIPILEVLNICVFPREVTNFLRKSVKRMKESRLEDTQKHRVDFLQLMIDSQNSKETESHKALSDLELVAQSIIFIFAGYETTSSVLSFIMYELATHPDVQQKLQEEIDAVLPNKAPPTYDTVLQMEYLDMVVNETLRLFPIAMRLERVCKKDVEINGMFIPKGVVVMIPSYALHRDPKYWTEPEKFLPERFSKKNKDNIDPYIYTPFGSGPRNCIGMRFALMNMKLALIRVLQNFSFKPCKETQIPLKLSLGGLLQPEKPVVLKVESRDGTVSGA

IC50	Structure (SMILES)
250 to 500 nM	COc1cncc(CN(CCc2ccc(NC(=O)c3cc(OC)c(OC)cc3NC(=O)c3cc(=O)c4cc(C)ccc4o3)cc2)Cc2ccc3c(cnn3C)c2)c1 [Compound 52]
100 to 250 nM	COc1cncc(CN(CCc2ccc(NC(=O)c3cc(OC)c(OC)cc3NC(=O)c3ccc4ccccc4n3)cc2)Cc2ccc3c(cnn3C)c2)c1 [Compound 53]
100 to 250 nM	COc1cc(NC(=O)c2cc(=O)c3ccccc3o2)c(C(=O)Nc2ccc(CCN(Cc3cccnc3)Cc3cnc4cnc(Br)cn34)cc2)cc1OC [Compound 54]
100 to 250 nM	CCOc1cncc(CN(CCc2ccc(NC(=O)c3cc(OC)c(OC)cc3NC(=O)c3cc(=O)c4ccccc4o3)cc2)Cc2ccc3c(cnn3C)c2)c1 [Compound 55]
250 to 500 nM	COCCOc1cncc(CN(CCc2ccc(NC(=O)c3cc(OC)c(OC)cc3NC(=O)c3cc(=O)c4ccccc4o3)cc2)Cc2ccc3c(cnn3C)c2)c1 [Compound 56]
250 to 500 nM	COc1cc(NC(=O)c2cc(=O)c3ccccc3o2)c(C(=O)Nc2ccc(CCN(Cc3cncc(C)c3)Cc3ccc4c(cnn4C)c3)cc2)cc1OC [Compound 57]
500 to 1000 nM	COc1cc(NC(=O)c2cc(=O)c3ccccc3o2)c(C(=O)Nc2ccc(CCN(Cc3cncc(-n4ccnc4C)c3)Cc3ccc4c(cnn4C)c3)cc2)cc1OC [Compound 58]
100 to 250 nM	COc1cc(NC(=O)c2cc(=O)c3cc(C)ccc3o2)c(C(=O)Nc2ccc(CCN(Cc3cncc(O)c3)Cc3ccc4c(cnn4C)c3)cc2)cc1OC [Compound 59]
250 to 500 nM	COCCOc1cncc(CN(CCc2ccc(NC(=O)c3cc(OC)c(OC)cc3NC(=O)c3cc(=O)c4cc(C)ccc4o3)cc2)Cc2ccc3c(cnn3C)c2)c1 [Compound 60]
250 to 500 nM	COCCOc1cncc(CN(CCc2ccc(NC(=O)c3cc(OC)c(OC)cc3NC(=O)c3cnc4ccccc4c3)cc2)Cc2ccc3c(cnn3C)c2)c1 [Compound 61]
500 to 1000 nM	COCCOc1cncc(CN(CCc2ccc(NC(=O)c3cc(OC)c(OC)cc3NC(=O)c3cnc4ccccc4n3)cc2)Cc2ccc3c(cnn3C)c2)c1 [Compound 62]
500 to 1000 nM	COc1cncc(CN(CCc2ccc(NC(=O)c3cc(OC)c(OC)cc3NC(=O)c3cc(=O)c4ccccc4o3)cc2)Cc2ccc3c(c2)c(C)nn3C)c1 [Compound 63]
100 to 250 nM	COc1cc(NC(=O)c2cc(=O)c3ccccc3o2)c(C(=O)Nc2ccc(CCN(Cc3cncc(C)c3)Cc3ccc4c(c3)c(C)nn4C)cc2)cc1OC [Compound 64]
100 to 250 nM	COCCOc1cncc(CN(CCc2ccc(NC(=O)c3cc(OC)c(OC)cc3NC(=O)c3cc(=O)c4ccccc4o3)cc2)Cc2ccc3c(c2)c(C)nn3C)c1 [Compound 65]
100 to 250 nM	COc1cc(NC(=O)c2cc(=O)c3cc(C)ccc3o2)c(C(=O)Nc2ccc(CCN(Cc3cccnc3)Cc3ccc4c(c3)c(C)nn4C)cc2)cc1OC [Compound 66]
100 to 250 nM	COc1cncc(CN(CCc2ccc(NC(=O)c3cc(OC)c(OC)cc3NC(=O)c3cc(=O)c4cc(C)ccc4o3)cc2)Cc2ccc3c(c2)c(C)nn3C)c1 [Compound 67]
100 to 250 nM	COCCOc1cncc(CN(CCc2ccc(NC(=O)c3cc(OC)c(OC)cc3NC(=O)c3cc(=O)c4cc(C)ccc4o3)cc2)Cc2ccc3c(c2)c(C)nn3C)c1 [Compound 68]
100 to 250 nM	COc1cncc(CN(CCc2ccc(NC(=O)c3cc(OC)c(OC)cc3NC(=O)c3cc(=O)c4ccccc4o3)cc2)Cc2ccc3c(c2)n(C)c(=O)n3C)c1 [Compound 69]
100 to 250 nM	COc1cc(NC(=O)c2cnc3ccccc3n2)c(C(=O)Nc2ccc(CCN(Cc3cncc(C)c3)Cc3ccc4c(cnn4C)c3)cc2)cc1OC [Compound 70]
250 to 500 nM	CCOc1cncc(CN(CCc2ccc(NC(=O)c3cc(OC)c(OC)cc3NC(=O)c3cc(=O)c4cc(C)ccc4o3)cc2)Cc2ccc3c(cnn3C)c2)c1 [Compound 73]
250 to 500 nM	CCOc1cncc(CN(CCc2ccc(NC(=O)c3cc(OC)c(OC)cc3NC(=O)c3cnc4ccccc4n3)cc2)Cc2ccc3c(cnn3C)c2)c1 [Compound 74]

IC50	Structure (SMILES)
250 to 500 nM	COc1cc(NC(=O)c2cnc3ccccc3n2)c(C(=O)Nc2ccc(CCN(Cc3cncc(C(C)C)c3)Cc3ccc4c(cnn4C)c3)cc2)cc1OC [Compound 75]
> 1000 nM	COc1cc(NC(=O)c2cc(=O)c3cc(C)ccc3o2)c(C(=O)Nc2ccc(CCN(Cc3cncc(C(C)C)c3)Cc3ccc4c(cnn4C)c3)cc2)cc1OC [Compound 76]
250 to 500 nM	COc1cc(NC(=O)c2cc(=O)c3cc(C)ccc3o2)c(C(=O)Nc2ccc(CCN(Cc3cncc(C)c3)Cc3ccc4c(cnn4C)c3)cc2)cc1OC [Compound 77]
500 to 1000 nM	COc1cc(NC(=O)c2cc(=O)c3ccccc3o2)c(C(=O)Nc2ccc(CCN3CCc4ccncc4C3)cc2)cc1OC [Compound 78]
100 to 250 nM	COC(=O)c1ccc(C(=O)Nc2ccc(CCN(Cc3cncc(OC)c3)Cc3ccc4c(cnn4C)c3)cc2)c(NC(=O)c2cc(=O)c3ccccc3[nH]2)c1 [Compound 79]
500 to 1000 nM	COc1cc2c(cc1OC)CN(CCc1ccc(NC(=O)c3ccc(C(=O)OCc4cccnc4)cc3NC(=O)c3cc(=O)c4ccccc4o3)cc1)CC2 [Compound 80]
> 1000 nM	COc1cc2c(cc1OC)CN(CCc1ccc(NC(=O)c3ccc(C(=O)OCc4ccncc4)cc3NC(=O)c3cc(=O)c4ccccc4o3)cc1)CC2 [Compound 81]
< 100 nM	COc1cc(NC(=O)c2cc(=O)c3ccccc3o2)c(C(=O)Nc2ccc(CCN3CCc4cnccc4C3)cc2)cc1OC [Compound 83]
> 1000 nM	CN(CCc1ccc(NC(=O)c2ccc(C(=O)OCc3cccnc3)cc2NC(=O)c2cc(=O)c3ccccc3o2)cc1)Cc1ccc2c(cnn2C)c1 [Compound 84]
250 to 500 nM	CN(CCc1ccc(NC(=O)c2ccc(C(=O)OCc3cncs3)cc2NC(=O)c2cc(=O)c3ccccc3o2)cc1)Cc1ccc2c(cnn2C)c1 [Compound 85]
250 to 500 nM	COc1cc(NC(=O)c2cc(=O)c3ccccc3o2)c(C(=O)Nc2ccc(CCN(C)Cc3cncn3C)cc2)cc1OC [Compound 86]
100 to 250 nM	COc1cc(NC(=O)c2cc(=O)c3ccccc3o2)c(C(=O)Nc2ccc(CCN(C)Cc3ccc(-n4ccnc4)c(OC)c3)cc2)cc1OC [Compound 87]
500 to 1000 nM	COc1cc(NC(=O)C2CC(=O)c3ccccc3O2)c(C(=O)Nc2ccc(CCN(C)Cc3ccc(-c4cccnc4)cc3)cc2)cc1OC (centres unmarked) [Compound 88]
> 1000 nM	COc1cc(NC(=O)C2CC(=O)c3ccccc3O2)c(C(=O)Nc2ccc(CCN(C)Cc3ccc(-c4ccncc4)cc3)cc2)cc1OC (centres unmarked) [Compound 89]
250 to 500 nM	CCCN(CCc1ccc(NC(=O)c2cc(OC)c(OC)cc2NC(=O)c2cc(=O)c3ccccc3o2)cc1)Cc1cccc(-n2ccnc2)c1 [Compound 90]
100 to 250 nM	CCCN(CCc1ccc(NC(=O)c2cc(OC)c(OC)cc2NC(=O)c2cc(=O)c3ccccc3o2)cc1)Cc1ccc(-n2ccnc2)c(OC)c1 [Compound 91]
> 1000 nM	COc1cc(NC(=O)c2cc(=O)c3ccccc3o2)c(C(=O)Nc2ccc(CCN(C)Cc3ccc4c(c3)ncn4C)cc2)cc1OC [Compound 98]
250 to 500 nM	COc1cc(NC(=O)c2cc(=O)c3ccccc3o2)c(C(=O)Nc2ccc(CCN(Cc3cccc(-n4ccnc4)c3)CC(C)C)cc2)cc1OC [Compound 99]
100 to 250 nM	CCc1cn(-c2cccc(CN(C)CCc3ccc(NC(=O)c4cc(OC)c(OC)cc4NC(=O)c4cc(=O)c5ccccc5o4)cc3)c2)cn1 [Compound 105]
> 1000 nM	CCN(CCc1ccc(NC(=O)c2cc(OC)c(OC)cc2NC(=O)c2cc(=O)c3ccccc3o2)cc1)Cc1ccc2c(cnn2C)c1 [Compound 106]
